In patent publication US9102648B1, “Bioavailable diacylhydrazine ligands for modulating the expression of exogenous genes via an ecdysone receptor complex” (Intrexon Corporation, priority 2003, dated 2015):

How the values were obtained:
[1] = target: GAL4 DBD-CfEcR(DEF)/VP16AD-MmRXRE (Choristoneura fumiferana, UniProt O77240); assay: 13B3 Assay (CHO stable cell line, luciferase reporter); conditions: for Fold Induction, 13B3 Assay, 33 uM: 33 uM ligand; for Fold Induction, 13B3 Assay, 33 uM / Fold Induction, 13B3 Assay, 3.3 uM: RLU ligand treated / RLU DMSO treated cells; for Fold Induction, 13B3 Assay, 33 uM / Fold Induction, 13B3 Assay, 3.3 uM / EC50: average of two wells; for Fold Induction, 13B3 Assay, 3.3 uM: 3.3 uM ligand; for 13B3 assay Rel Max FI: maximum fold induction at any concentration relative to that of GS-E ligand, CHO 13B3 cells; for EC50: read-out: 13B3 EC50, CHO 13B3 stable cell line, luciferase reporter, 48 h
Summary of the method: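 Ligands dosed at 8 levels from 33 to 0.01 μM (DMSO stocks diluted 300-fold) onto the 13B3 CHO line carrying GAL4-DBD/CfEcR-DEF, VP16/MmRXR-DE and a GAL4-responsive luciferase gene.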

[2] = target: GAL4 DBD (1-147)-CfEcR(DEF)/VP16AD-βRXREF-LmUSPEF (Choristoneura fumiferana, UniProt O77240); assay: cell-based; conditions: for Fold Induction, 27-63 Assay, 3.3 uM: 3.3 uM ligand; for Fold Induction, 27-63 Assay, 3.3 uM / Fold Induction, 27-63 Assay, 33 uM: RLU ligand treated / RLU DMSO treated cells; for Fold Induction, 27-63 Assay, 3.3 uM / Fold Induction, 27-63 Assay, 33 uM / EC50: average of two wells; for Fold Induction, 27-63 Assay, 33 uM: 33 uM ligand; for 27-63 assay Rel Max FI: maximum fold induction at any concentration relative to that of GS-E ligand, CHO 27-63 cells; for EC50: read-out: 27-63 assay EC50, CHO 27-63 stable cell line, luciferase reporter

Row | SMILES | Fold Induction, 13B3 Assay, 33 uM [1] | Fold Induction, 27-63 Assay, 3.3 uM [2] | Fold Induction, 27-63 Assay, 33 uM [2] | 27-63 assay Rel Max FI [2] | EC50 [2] [nM] | Fold Induction, 13B3 Assay, 3.3 uM [1] | 13B3 assay Rel Max FI [1] | EC50 [1] [nM]
1 | COc1cc(C(=O)NN(C(=O)c2cc(C)cc(C)c2)C(C)(C)C)ccc1C [RG-101585] | 1015 | 154 | 1495 | 0.893 | 5060 |  |  | 
2 | CCc1c(C(=O)NN(C(=O)c2cc(C)cc(C)c2)C(C)(C)C)ccc2c1OC(C)O2 (stereo not shown) [RG-101659] | 1185 | 2283 | 1896 | 1.009 | 347 | 1556 | 0.867 | 562
3 | CCc1cccc(C(=O)NN(C(=O)c2cc(C)cc(C)c2)C(C)(C)C)c1C [RG-101691] | 630 | 2249 | 2073 | 0.969 | 250 | 5245 | 0.918 | 406
4 | Cc1cc(C)cc(C(=O)N(NC(=O)c2cccc(OC(F)(F)F)c2C)C(C)(C)C)c1 [RG-101692] | 170 | 1798 | 591 | 1.008 | 788 | 4180 | 1.004 | 728
5 | CCc1ccc(C(=O)NN(C(=O)c2cc(C)cc(Cl)c2)C(C)(C)C)cc1 [RG-101774] | 526 | 1807 | 1359 | 0.795 | 359 | 987 | 0.657 | 327
6 | CCc1ccc(C(=O)NN(C(=O)c2cc(C)c(C)c(Cl)c2)C(C)(C)C)cc1 [RG-101863] | 207 | 1705 | 636 | 1.043 | 1000 | 3187 | 0.837 | 728
7 | CCc1ccc(C(=O)NN(C(=O)c2cc(C)cc(C)c2)C(C)(C)C)cc1Cl [RG-101864] | 349 | 1807 | 1464 | 0.750 | 343 | 5959 | 0.460 | 288
8 | Cc1cc(C)cc(C(=O)N(NC(=O)c2ccc3c(c2)CCCC3)C(C)(C)C)c1 [RG-101887] | 542 | 1142 | 1107 | 0.675 | 351 | 2462 | 0.579 | 861
9 | C=Cc1c(OC)cccc1C(=O)NN(C(=O)c1cc(C)cc(C)c1)C(C)(C)C [RG-102021] |  |  | 2951 |  |  | 4081 | 1.136 | 4040
10 | CCc1ccc(C(=O)NN(C(=O)c2ccccc2CC)C(C)(C)C)cc1 [RG-102592] | 909 | 7 | 1265 | 0.798 | 7770 | 194 | 0.684 | 4920
11 | CCc1ccc(C(=O)NN(C(=O)c2cc(C)cc(C)c2)C(C)C(C)(C)C)cc1 (stereo not shown) [RG-103451] | 661 | 3326 | 3865 | 0.884 | 314 | 576 | 0.742 | 208
12 | COCc1c(OC)cccc1C(=O)NN(C(=O)c1cc(C)cc(C)c1)C(C)(C)C [RG-115117] |  |  | 221 |  |  | 1 | 0 | > 50000
